This note sets out measurements from PMC8241846, “Structure and lipid dynamics in the maintenance of lipid asymmetry inner membrane complex of A. baumannii” (Communications Biology, 2021).

For experiment [1], the target named is T1, MlaBDEFab (Acinetobacter baumannii, UniProt A0A4P2WWN2+V5V921+V5V9F4).
T1 construct: gene ttg2A; full mla operon expressed in E. coli BL21(DE3), Ni-NTA purified (tag not described), in DDM; C2 complex MlaF2-MlaE2-MlaD6-MlaB2 (about half of particles with one MlaB)
In words: cryo-EM map, […] A (no model deposited). It counts as binding. Conditions: protein mixed 1:1 with 20 mM nucleotide, pH 8.0, 0.025% DDM; same nucleotide site; EMD-11084 in Table 1.

In experiment [2] the target is T1, MlaBDEFab. Kind of experiment: cryo-EM structure, […] A. It is filed as binding. As to conditions: Mg2+ seen in site; protein mixed 1:1 with 20 mM nucleotide, pH 8.0, 0.025% DDM; nucleotide site at MlaF/MlaE/MlaD interface (MlaF Lys55, Ser51, His211, Arg26); non-hydrolysable ATP analogue.
Experiment [3] deals with MlaD of the A. baumannii MlaBDEF complex (MlaBDEFab) (Acinetobacter baumannii) (UniProt V5V921). Kind of experiment: cryo-EM structure; single-particle cryo-EM of the purified MlaBDEFab complex in DDM; 20 mM Hepes (pH 7.0), 150 mM NaCl, 0.025% (w/v) DDM; with AppNHp (3.9 Å, atomic model), also apo (~4.2 Å) and with ADP (~4.4 Å).
Experiment [4] addresses MlaF of the A. baumannii MlaBDEF complex (MlaBDEFab) (Acinetobacter baumannii). The description is as above.

For orientation: stoichiometry N means a count of units in the complex or per binding partner.

In the case of `Nc1ncnc2c1ncn2[C@@H]1O[C@H](COP(=O)(O)OP(=O)(O)O)[C@@H](O)[C@H]1O` [ADP], the “cryo-EM map, 4.43 A (no model deposited)” value in experiment [1] is “confirms the presence of nucleotide in the AppNHp and ADP maps”.
`Nc1ncnc2c1ncn2[C@@H]1O[C@H](COP(=O)(O)OP(=O)(O)NP(=O)(O)O)[C@@H](O)[C@H]1O` [AppNHp]: in experiment [2], the “cryo-EM structure, 3.92 A” value was “we observed clear density of the nucleotide and magnesium, within the MlaF binding pocket”.
Molecule “MlaD of the A. baumannii MlaBDEF complex (MlaBDEFab) (from UniProt V5V921 1-226) (natural protein)” gave a stoichiometry N in experiment [3] of 6.

B1: MlaB of the A. baumannii MlaBDEF complex (MlaBDEFab) (natural protein)
chain: MVQYLNQELVVSGKIDFENAEQQYQAGLAIIKKQTSFPLIVDLKQLEHGNTLALAVLVQWLRQTPQKSGLHFKNVPEKMLKIIQACHLQEDLHLV
B1: the percent of particles with MlaB bound to both MlaF in experiment [4] is 50%.
